Test results published in patent US20160045496A1, “USE OF (RS)-S-CYCLOPROPYL-S-(4--5-(TRIFLUOROMETHYL)PYRIMIDIN-2-YL]AMINO}PHENYL)SULFOXIMIDE FOR TREATMENT OF SPECIFIC TUMOURS” (BAYER PHARMA AKTIENGESELLSCHAFT, priority 2013, published 2016).

Tests used:
Type in all cases: cell-based
[1] = tested on: GRANTA-519 cells; assay: Proliferation assay, suspension cells, Cell Titer-Glo; conditions: Homo sapiens, 96 h; GRANTA-519 (DSMZ ACC-342), mantle cell lymphoma; 4 days incubation; CTG
Procedure: (§1) Cells growing in suspension (HBL-1, TMD-8, GRANTA-519, Jeko-1) were plated out in a cell density of 2000-4000 cells/measurement point, depending on the rate of growth of the cell line, in a black-walled, clear-bottom 96-well multititre plate in 100 μl of growth medium (DMEM/HAMS F12, 2 mM L-glutamine, 10% foetal calf serum). After 24 hours, cell density was determined in one plate (zero plate) by adding 60 μl/measurement point of CTG solution (Promega Cell Titer-Glo solution (catalogue numbers G755B and G756B)), subsequent incubation for 2 min followed by 10 min shaking (in the dark) and measurement of luminescence (VICTOR V, Perkin Elmer). For the test plates, the test substances were prepared in various concentrations (0 μM, and also in the range of 0.001-3 μM; the final concentration of the solvent dimethyl sulphoxide was 0.5%) as 3× concentrated solutions in fresh growth medium. Aliquots of 50 μl each were added to the cell suspensions and the cells were incubated for 4 days in the presence of the test substances. Subsequently, cell density was determined using CTG solution as described above and IC50 values were calculated by means of a four parameter fit.
(§2) The substances were investigated in the following cell lines, which, by way of example, represent the specified indications (table 1).

[2] = tested on: HBL-1 cells; assay: as above; conditions: Homo sapiens, HBL1, 96 h; HBL-1 (Charité, Berlin), diffuse large B-cell lymphoma; 4 days incubation; CTG
Procedure: as §1, §2

[3] = tested on: Jeko-1 cells; assay: as above; conditions: Homo sapiens, 96 h; Jeko-1 (DSMZ ACC-553), mantle cell lymphoma; 4 days incubation; CTG
Procedure: as §1, §2

[4] = tested on: TMD-8 cells; assay: as above; conditions: Homo sapiens, TMD8, 96 h; TMD-8 (Charité, Berlin), diffuse large B-cell lymphoma; 4 days incubation; CTG
Procedure: as §1, §2

[5] = tested on: Jeko-1 cells; assay: Cytotoxic action after 24 hours, WST-1 viability; conditions: Homo sapiens, Jeko-1 (Institut Gustave Roussy), mantle cell lymphoma, after 24 hours of incubation
Procedure: (§3) The cytotoxic action of BAY 1000394 on Jeko-1 and UPN-1 cells was also determined after 24 hours of incubation with the substance. To this end, 50 000 cells per measurement point were plated out in 96-well plates and incubated with BAY 1000394 in various concentrations in the range of 0.001 to 1.0 μM. After 24 hours, the viability of the cells was determined in accordance with the WST-1 method (Roche Diagnostics, catalogue number 11644807001).
as §2

[6] = tested on: UPN-1 cells; assay: Cytotoxic action after 24 hours, WST-1 viability; conditions: Homo sapiens, UPN1, UPN-1 (Institut Gustave Roussy), mantle cell lymphoma, after 24 hours of incubation
Procedure: as §3, §2

[7] = tested on: A-673 cells; assay: Proliferation assay, adherent cells, crystal violet; conditions: Homo sapiens, A673, 96 h, A-673 (ATCC CRL-1598), rhabdomyosarcoma, 4 days incubation
Procedure: (§4) Human tumour cells were originally obtained from the American Type Culture Collection (ATCC), the Deutsche Sammlung von Mikroorganismen and Zellkulturen (DSMZ) (German Collection of Microorganisms and Cell Cultures) in Braunschweig, CLS Cell Lines Service GmbH in Eppelheim, the Institut Gustave Roussy (Villejuif, France), or the Charité in Berlin (table 1). Adherently growing cells (A-673, RD, Rh30, Rh41, SK-N-AS, NCI-H2286, HCC-366, FaDu, CAL-33, RPMI-2650, SiHa) were plated out in a density of 3000-4000 cells/measurement point, depending on the rate of growth of the cell line, in a 96-well multititre plate in 200 μl of growth medium (DMEM/HAMS F12, 2 mM L-glutamine, 10% foetal calf serum). After 24 hours, the cells of one plate (zero plate) were dyed with crystal violet (see below), whereas the medium of the other plates was replaced with fresh culture medium (200 μl) to which the test substances were added in various concentrations (0 μM, and also in the range of 0.001-3 μM; the final concentration of the solvent dimethyl sulphoxide was 0.5%). The cells were incubated for 4 days in the presence of the test substances. Cell proliferation was determined by dyeing the cells with crystal violet: the cells were fixed at room temperature for 15 min by adding 20 μl/measurement point of an 11% strength glutaraldehyde solution. After washing the fixed cells three times with water, the plates were dried at room temperature. The cells were dyed by adding 100 μl/measurement point of a 0.1% strength crystal violet solution (pH adjusted to pH 3 by adding acetic acid). After washing the dyed cells three times with water, the plates were dried at room temperature. The dye was dissolved by adding 100 μl/measurement point of a 10% strength acetic acid solution. Absorbance was determined photometrically at a wavelength of 595 nm. The percentage change in cell growth was calculated by normalizing the measured values to the absorbance values of the zero plate (=0%) and the absorbance of the untreated (0 μM) cells (=100%). The measured data were normalized to 0% inhibition (cell proliferation without inhibitor) and 100% inhibition (zero plate). The IC50 values were determined by means of a four parameter fit.
as §2

[8] = tested on: CAL-33 cells; assay: as above; conditions: Homo sapiens, 96 h, CAL-33 (DSMZ ACC-447), squamous-cell carcinoma, head and nape, 4 days incubation
Procedure: as §4, §2

[9] = tested on: FaDu cells; assay: as above; conditions: Homo sapiens, 96 h, FaDu (ATCC HTB-43), squamous-cell carcinoma, head and nape, 4 days incubation
Procedure: as §4, §2

[10] = tested on: HCC-366 cells; assay: as above; conditions: Homo sapiens, HCC366, 96 h, HCC-366 (DSMZ ACC-492), squamous-cell carcinoma, lung, 4 days incubation
Procedure: as §4, §2

[11] = tested on: NCI-H2286 cells; assay: as above; conditions: Homo sapiens, 96 h, NCI-H2286 (ATCC CRL-5938), squamous-cell carcinoma, lung, 4 days incubation
Procedure: as §4, §2

[12] = tested on: RD cells; assay: as above; conditions: Homo sapiens, 96 h, RD (CLS-300401), rhabdomyosarcoma, 4 days incubation
Procedure: as §4, §2

[13] = tested on: RPMI-2650 cells; assay: as above; conditions: Homo sapiens, 96 h, RPMI-2650 (DSMZ ACC-287), squamous-cell carcinoma, head and nape, 4 days incubation
Procedure: as §4, §2

[14] = tested on: Rh30 cells; assay: as above; conditions: Homo sapiens, 96 h, Rh30 (DSMZ ACC-489), rhabdomyosarcoma, 4 days incubation
Procedure: as §4, §2

[15] = tested on: Rh41 cells; assay: as above; conditions: Homo sapiens, 96 h, Rh41 (DSMZ ACC-592), rhabdomyosarcoma, 4 days incubation
Procedure: as §4, §2

[16] = tested on: SK-N-AS cells; assay: as above; conditions: Homo sapiens, 96 h, SK-N-AS (ATCC CRL-2137), neuroblastoma, 4 days incubation
Procedure: as §4, §2

[17] = tested on: SiHa cells; assay: as above; conditions: Homo sapiens, 96 h, SiHa (ATCC HTB-35), squamous-cell carcinoma, cervix, 4 days incubation
Procedure: as §4, §2

`C[C@@H](O)[C@@H](C)Oc1nc(Nc2ccc([S@](=N)(=O)C3CC3)cc2)ncc1C(F)(F)F` [BAY 1000394, (R)-S-cyclopropyl-S-(4-{[4-{[(1R, 2R)-2-hydroxy-1-methylpropyl]oxy}-5-(trifluoromethyl)pyrimidin-2-yl]amino}phenyl)sulphoximide] showed an IC50 [1] of 44 nM, an IC50 [2] of 24 nM and an IC50 [3] of 20 nM. It also gave an IC50 [4] of 35 nM, an IC50 [5] of 31 nM and an IC50 [6] of 4.7 nM. For the same molecule, the IC50 [7] was 9.8 nM, the IC50 [8] was 19 nM and the IC50 [9] was 46 nM. The IC50 [10] was 20 nM, the IC50 [11] was 7 nM and the IC50 [12] was 26 nM. It also gave an IC50 [13] of 13 nM, an IC50 [14] of 23 nM and an IC50 [15] of 17 nM. For the same molecule, the IC50 [16] was 22 nM and the IC50 [17] was 10 nM.
